Experiments:
[1] = target: GDP-bound NRAS wild-type protein (Homo sapiens, UniProt P01111); experiment: Binding to NRAS by surface plasmon resonance (SPR), Single Cycle Kinetics; details: KD ratio, GDP-bound NRAS wild-type vs GDP-bound KRAS wild-type, SPR
[2] = target: GDP-bound HRAS wild-type protein (Homo sapiens, UniProt P01112); experiment: Binding to HRAS by surface plasmon resonance (SPR), Single Cycle Kinetics; details: KD ratio, GDP-bound HRAS wild-type vs GDP-bound KRAS wild-type, SPR
Chain of GDP-bound HRAS wild-type protein (P01112 whole entry): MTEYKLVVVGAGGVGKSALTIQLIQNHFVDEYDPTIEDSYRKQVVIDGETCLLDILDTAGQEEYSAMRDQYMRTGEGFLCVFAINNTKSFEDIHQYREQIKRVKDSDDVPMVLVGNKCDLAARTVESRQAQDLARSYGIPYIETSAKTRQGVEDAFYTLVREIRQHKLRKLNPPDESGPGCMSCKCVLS

Chain of GDP-bound NRAS wild-type protein (P01111 whole entry): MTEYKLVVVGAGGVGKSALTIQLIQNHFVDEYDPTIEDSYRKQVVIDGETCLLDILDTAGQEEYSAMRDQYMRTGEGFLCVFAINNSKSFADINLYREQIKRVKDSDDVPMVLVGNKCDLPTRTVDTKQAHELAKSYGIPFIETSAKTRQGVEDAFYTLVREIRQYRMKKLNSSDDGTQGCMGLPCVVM

SMILES	NRAS/KRAS (ratio of KD value for NRAS to KD value for KRAS) [1]	HRAS/KRAS (ratio of KD value for HRAS to KD value for KRAS) [2]
CCCOC[C@H]1C(=O)N[C@@H]([C@@H](C)CC)C(=O)N(C)CC(=O)N(C)[C@H]2C/C=C\CCN(C2=O)[C@@H](Cc2ccc(C(F)(F)F)cc2)C(=O)N(C)CC(=O)N[C@@H](CCc2cc(F)c(C(F)(F)F)c(F)c2)C(=O)N2C[C@H](F)C[C@H]2C(=O)NC2(CC(C)(C)C2)C(=O)N(C)[C@@H](C2CCCC2)C(=O)N(C)[C@H](C(=O)N(C)CCC)CC(=O)N1C [PP1698]	A (a compound having 10 or more and less than 20 is denoted as A)	A (a compound having 10 or more and less than 20 is denoted as A)
CCCN(C)C(=O)[C@@H]1CC(=O)N(C)[C@@H](CC)C(=O)N[C@@H]([C@@H](C)CC)C(=O)N(C)CC(=O)N(C)[C@H]2C/C=C\CCN(C2=O)[C@@H](Cc2ccc(C(F)(F)F)cc2)C(=O)N(C)CC(=O)N[C@@H](CCc2cc(F)c(C(F)(F)F)c(F)c2)C(=O)N2C[C@H](OCC)C[C@H]2C(=O)NC2(CCC2)C(=O)N(C)[C@@H](C2CCCC2)C(=O)N1C [PP1699]	A (a compound having 10 or more and less than 20 is denoted as A)	A (a compound having 10 or more and less than 20 is denoted as A)
CCCN(C)C(=O)[C@@H]1CC(=O)N(C)[C@@H](CC(F)F)C(=O)N[C@@H]([C@@H](C)CC)C(=O)N(C)CC(=O)N(C)[C@H]2C/C=C\CCN(C2=O)[C@@H](Cc2ccc(C(F)(F)F)cc2)C(=O)N(C)CC(=O)N[C@@H](CCc2cc(F)c(C(F)(F)F)c(F)c2)C(=O)N2C[C@H](OCC)C[C@H]2C(=O)NC2(CCC2)C(=O)N(C)[C@@H](C2CCCC2)C(=O)N1C [PP1700]	A (a compound having 10 or more and less than 20 is denoted as A)	A (a compound having 10 or more and less than 20 is denoted as A)
CCO[C@@H]1C[C@H]2C(=O)NC3(CCC3)C(=O)N(C)[C@@H](C3CCCC3)C(=O)N(C)[C@H](C(=O)N(C)CC)CC(=O)N(C)[C@@H](CC(F)(F)F)C(=O)N[C@@H]([C@@H](C)CC)C(=O)N(C)CC(=O)N(C)[C@H]3C/C=C\CCN(C3=O)[C@@H](Cc3ccc(C(F)(F)F)cc3)C(=O)N(C)CC(=O)N[C@@H](CCc3cc(F)c(C(F)(F)F)c(F)c3)C(=O)N2C1 [PP1701]	A (a compound having 10 or more and less than 20 is denoted as A)	A (a compound having 10 or more and less than 20 is denoted as A)
CCCN(C)C(=O)[C@@H]1CC(=O)N(C)[C@@H](CC(F)(F)F)C(=O)N[C@@H]([C@@H](C)CC)C(=O)N(C)CC(=O)N(C)[C@H]2C/C=C\CCN(C2=O)[C@@H](Cc2ccc(C(F)(F)F)cc2)C(=O)N(C)CC(=O)N[C@@H](CCc2cc(F)c(C(F)(F)F)c(F)c2)C(=O)N2C[C@H](OCC)C[C@H]2C(=O)NC2(CCC2)C(=O)N(C)[C@@H](C2CCCC2)C(=O)N1C [PP1702]	A (a compound having 10 or more and less than 20 is denoted as A)	A (a compound having 10 or more and less than 20 is denoted as A)
C#CC[C@H]1C(=O)N[C@@H]([C@@H](C)CC)C(=O)N(C)CC(=O)N(C)[C@H]2C/C=C\CCN(C2=O)[C@@H](Cc2ccc(C(F)(F)F)cc2)C(=O)N(C)CC(=O)N[C@@H](CCc2cc(F)c(C(F)(F)F)c(F)c2)C(=O)N2C[C@H](OCC)C[C@H]2C(=O)NC2(CCC2)C(=O)N(C)[C@@H](C2CCCC2)C(=O)N(C)[C@H](C(=O)N(C)CCC)CC(=O)N1C [PP1703]	A (a compound having 10 or more and less than 20 is denoted as A)	A (a compound having 10 or more and less than 20 is denoted as A)
CCCC[C@H]1C(=O)N[C@@H]([C@@H](C)CC)C(=O)N(C)CC(=O)N(C)[C@H]2C/C=C\CCN(C2=O)[C@@H](Cc2ccc(C(F)(F)F)cc2)C(=O)N(C)CC(=O)N[C@@H](CCc2cc(F)c(C(F)(F)F)c(F)c2)C(=O)N2C[C@H](OCC)C[C@H]2C(=O)NC2(CCC2)C(=O)N(C)[C@@H](C2CCCC2)C(=O)N(C)[C@H](C(=O)N(C)CCC)CC(=O)N1C [PP1704]	A (a compound having 10 or more and less than 20 is denoted as A)	A (a compound having 10 or more and less than 20 is denoted as A)
CCCN(C)C(=O)[C@@H]1CC(=O)N(C)[C@@H](CC2CCC2)C(=O)N[C@@H]([C@@H](C)CC)C(=O)N(C)CC(=O)N(C)[C@H]2C/C=C\CCN(C2=O)[C@@H](Cc2ccc(C(F)(F)F)cc2)C(=O)N(C)CC(=O)N[C@@H](CCc2cc(F)c(C(F)(F)F)c(F)c2)C(=O)N2C[C@H](OCC)C[C@H]2C(=O)NC2(CCC2)C(=O)N(C)[C@@H](C2CCCC2)C(=O)N1C [PP1705]	AA (a compound having 20 or more is denoted as AA)	A (a compound having 10 or more and less than 20 is denoted as A)
CC[C@H](C)[C@@H]1NC(=O)[C@H](C)N(C)C(=O)C[C@@H](C(=O)N(C)C)N(C)C(=O)[C@H](C2CCCC2)N(C)C(=O)C2(CC(C)(C)C2)NC(=O)[C@@H]2CC(F)(F)CN2C(=O)[C@H](CCc2cc(F)c(C(F)(F)F)c(F)c2)NC(=O)CN(C)C(=O)[C@H](Cc2ccc(C(F)(F)F)cc2)N2CC/C=C\C[C@@H](C2=O)N(C)C(=O)CN(C)C1=O [PP1707]	AA (a compound having 20 or more is denoted as AA)	A (a compound having 10 or more and less than 20 is denoted as A)
CC[C@H](C)[C@@H]1NC(=O)[C@H](CC(F)F)N(C)C(=O)C[C@@H](C(=O)N(C)C)N(C)C(=O)[C@H](C2CCCC2)N(C)C(=O)C2(CC(C)(C)C2)NC(=O)[C@@H]2CC(F)(F)CN2C(=O)[C@H](CCc2cc(F)c(C(F)(F)F)c(F)c2)NC(=O)CN(C)C(=O)[C@H](Cc2ccc(C(F)(F)F)cc2)N2CC/C=C\C[C@@H](C2=O)N(C)C(=O)CN(C)C1=O [PP1709]	A (a compound having 10 or more and less than 20 is denoted as A)	A (a compound having 10 or more and less than 20 is denoted as A)
CC[C@H](C)[C@@H]1NC(=O)[C@H](CC(F)(F)F)N(C)C(=O)C[C@@H](C(=O)N(C)C)N(C)C(=O)[C@H](C2CCCC2)N(C)C(=O)C2(CC(C)(C)C2)NC(=O)[C@@H]2CC(F)(F)CN2C(=O)[C@H](CCc2cc(F)c(C(F)(F)F)c(F)c2)NC(=O)CN(C)C(=O)[C@H](Cc2ccc(C(F)(F)F)cc2)N2CC/C=C\C[C@@H](C2=O)N(C)C(=O)CN(C)C1=O [PP1710]	A (a compound having 10 or more and less than 20 is denoted as A)	B (a compound having 3 or more and less than 10 is denoted as B)
